This passage reports IC50 results from patent publication US11040035B2, “3-oxo-2,6-diphenyl-2,3-dihydropyridazine-4-carboxamides” (BAYER PHARMA AKTIENGESELLSCHAFT, priority 2016, dated 2021).

Broadly, the IC50 is the concentration that inhibits the measured activity by half.

Assay [1] addresses T1, AHR (Homo sapiens, UniProt P35869).
T1 sequence (P35869 11-848): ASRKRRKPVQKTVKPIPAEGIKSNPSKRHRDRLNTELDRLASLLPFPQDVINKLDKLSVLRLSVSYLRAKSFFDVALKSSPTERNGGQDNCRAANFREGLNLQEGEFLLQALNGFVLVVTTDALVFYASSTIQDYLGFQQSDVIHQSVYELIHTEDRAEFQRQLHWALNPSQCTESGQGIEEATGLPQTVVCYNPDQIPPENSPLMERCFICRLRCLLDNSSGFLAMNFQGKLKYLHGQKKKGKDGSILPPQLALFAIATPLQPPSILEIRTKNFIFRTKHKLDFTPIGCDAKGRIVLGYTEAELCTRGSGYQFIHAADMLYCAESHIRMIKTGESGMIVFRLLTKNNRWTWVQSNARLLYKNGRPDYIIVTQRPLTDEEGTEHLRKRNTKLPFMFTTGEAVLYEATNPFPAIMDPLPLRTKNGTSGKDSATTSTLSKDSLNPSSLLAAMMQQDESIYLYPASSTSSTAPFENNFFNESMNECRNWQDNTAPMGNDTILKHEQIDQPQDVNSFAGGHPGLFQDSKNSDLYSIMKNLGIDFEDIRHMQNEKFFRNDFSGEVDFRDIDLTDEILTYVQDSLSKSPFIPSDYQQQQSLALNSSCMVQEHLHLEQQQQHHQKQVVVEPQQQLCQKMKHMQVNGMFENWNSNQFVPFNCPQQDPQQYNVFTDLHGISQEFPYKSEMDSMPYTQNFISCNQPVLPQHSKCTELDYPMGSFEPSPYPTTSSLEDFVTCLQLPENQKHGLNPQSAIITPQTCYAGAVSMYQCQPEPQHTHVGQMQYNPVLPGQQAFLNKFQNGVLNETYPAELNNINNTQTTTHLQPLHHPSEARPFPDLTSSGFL
Put plainly: In vitro assay 2: agonism in human cell line (transactivation assay).
Experimental: Transactivation Assay in Human Cell Line (In Vitro Assays 1 and 2)
Transactivation assays were carried out in U87 glioblastoma cells (ATCC) endogenously expressing AHR. In addition the cells were stably transfected with an AHR inducible firefly luciferase reporter gene construct that carried AHR-binding sites (DRE) in its promoter and a renilla reporter gene construct with constitutively active promoter.
In Vitro Assay 2: Agonism in Human Cell Line
Cells in medium (tryptophan free RPMI, 1% FCS, 2 mM Glutamine) were grown for 20 hours in absence (negative control) or presence of increasing concentrations of test compounds (typical dilutions: 72 pmol/L, 0.25 nmol/L, 0.89 nmol/L; 3.1 nmol/L, 11 nmol/L, 38 nmol/L, 130 nmol/L, 470 nmol/L, 1.6 μmol/L, 5.7 μmol/L and 20 μmol/L in duplicates). As positive activation control cells were incubated with 300 μM kynurenic acid. Normalization was done by positive and negative controls.
Firefly luciferase activity was determined by the SteadyGlo Luciferase Assay System (Promega, #2520).

Assay [2] has as its target T1, AHR. Put plainly: In vitro assay 1: antagonism in human cell line (transactivation assay, kynurenic acid prestimulated). The settings on record: Assay 1: AHR-luc Hum Antagonism IC50 [M], 150 μM kynurenic acid, 20 hours, firefly luciferase.
The mark [3] stands for this setting: read-out: Assay 2: AHR-luc Hum Agonism IC50, no kynurenic acid, 20 hours, firefly luciferase.
[4] abbreviates: Assay 2: AHR-luc Hum Agonism IC50 [M], no kynurenic acid, 20 hours, firefly luciferase.

Turning to `O=C(NC(CO)C1CCOC1)c1cc(-c2ccc(Cl)cc2)nn(-c2cccc(F)c2)c1=O` (single isomer, unassigned) [Example 41, 6-(4-Chlorophenyl)-2-(3-fluorophenyl)-N-[2-hydroxy-1-(tetrahydrofuran-3-yl)ethyl]-3-oxo-2,3-dihydropyridazine-4-carboxamide], the values for the half-maximal inhibitory concentration (IC50) in assay [1] (setting [3]) and in assay [2] were over 2e-05 M and 2.15e-07 M, respectively.
As for `O=C(NCC(O)C(F)(F)F)c1cc(-c2ccc(Cl)cc2)nn(-c2cccc(Cl)c2)c1=O` (single isomer, unassigned) [Example 63, 2-(3-Chlorophenyl)-6-(4-chlorophenyl)-3-oxo-N-(3,3,3-trifluoro-2-hydroxypropyl)-2,3-dihydropyridazine-4-carboxamide], the IC50 in assay [1] (setting [4]) was over 2e-05 M; in assay [2], 8.99e-08 M.
For `O=C(N[C@H]1COC[C@H]1O)c1cc(-c2ccc(Cl)cc2)nn(-c2cccc(F)c2)c1=O` (single isomer, unassigned) [Example 384, 6-(4-chlorophenyl)-2-(3-fluorophenyl)-N-[cis-4-hydroxytetrahydrofuran-3-yl]-3-oxo-2,3-dihydropyridazine-4-carboxamide], the IC50 in assay [1] (setting [4]) is over 2e-05 M; in assay [2], 2.4e-08 M.
In the case of `COCC(O)CNC(=O)c1cc(-c2ccc(Cl)cc2)nn(-c2cccc(F)c2)c1=O` (stereo not shown) [Example 31, 6-(4-Chlorophenyl)-2-(3-fluorophenyl)-N-(2-hydroxy-3-methoxypropyl)-3-oxo-2,3-dihydropyridazine-4-carboxamide], the IC50 is over 2e-05 M in assay [1] (setting [4]) and 1.61e-07 M in assay [2].
Take `CC(NC(=O)c1cc(-c2ccc(Cl)cc2)nn(-c2cccc(F)c2)c1=O)C(O)CO` (stereo not shown) [Example 337, 6-(4-chlorophenyl)-N-(3,4-dihydroxybutan-2-yl)-2-(3-fluorophenyl)-3-oxo-2,3-dihydropyridazine-4-carboxamide]: the values for the IC50 in assay [1] (setting [4]) and in assay [2] were over 2e-05 M and 4.58e-08 M, respectively.
The corresponding values for `O=C(NCC(O)C1CCCC1)c1cc(-c2ccc(Cl)cc2)nn(-c2cccc(F)c2)c1=O` (racemic) [Example 232, 6-(4-Chlorophenyl)-N-[(2RS)-2-cyclopentyl-2-hydroxyethyl]-2-(3-fluorophenyl)-3-oxo-2,3-dihydropyridazine-4-carboxamide] are over 2e-05 M and 1.19e-07 M.
`O=C(NC(CCO)C(F)(F)F)c1cc(-c2ccc(Cl)cc2)nn(-c2cccc(F)c2)c1=O` (racemic) [Example 340, 6-(4-chlorophenyl)-2-(3-fluorophenyl)-3-oxo-N-[(2RS)-1,1,1-trifluoro-4-hydroxybutan-2-yl]-2,3-dihydropyridazine-4-carboxamide]: the IC50 in assay [1] (setting [4]) was over 2e-05 M; in assay [2], 2.26e-08 M.
As to `CC(O)C(C)NC(=O)c1cc(-c2ccc(Cl)c(F)c2)nn(-c2cccc(F)c2)c1=O` (stereo not shown) [Example 289, 6-(4-Chloro-3-fluorophenyl)-2-(3-fluorophenyl)-N-(3-hydroxybutan-2-yl)-3-oxo-2,3-dihydropyridazine-4-carboxamide], the IC50 was over 2e-05 M in assay [1] (setting [4]) and 1.44e-07 M in assay [2].
With `O=C(N[C@H]1COCC[C@H]1O)c1cc(-c2ccc(Cl)cc2)nn(-c2cccc(F)c2)c1=O` [Example 273, 1,5-Anhydro-2-({[6-(4-chlorophenyl)-2-(3-fluorophenyl)-3-oxo-2,3-dihydropyridazin-4-yl]carbonyl}amino)-2,4-dideoxy-D-erythro-pentitol], the 50% inhibitory concentration (IC50) is over 2e-05 M in assay [1] (setting [4]) and 4.31e-08 M in assay [2].
For the compound `C[C@@H](CO)NC(=O)c1cc(-c2ccc(Cl)cc2)nn(-c2cc(Cl)cc(Cl)c2)c1=O` [Example 309, 6-(4-Chlorophenyl)-2-(3,5-dichlorophenyl)-N-[(2S)-1-hydroxypropan-2-yl]-3-oxo-2,3-dihydropyridazine-4-carboxamide], the IC50 in assay [1] (setting [4]) is over 2e-05 M; in assay [2], 9.87e-07 M.
Turning to `CC(O)C(C)NC(=O)c1cc(-c2ccc(OC(F)F)cc2)nn(-c2cccc(F)c2)c1=O` (single isomer, unassigned) [Example 141, 6-[4-(Difluoromethoxy)phenyl]-2-(3-fluorophenyl)-N-(3-hydroxybutan-2-yl)-3-oxo-2,3-dihydropyridazine-4-carboxamide], the IC50 in assay [1] (setting [4]) was over 2e-05 M; in assay [2] it was 7.81e-08 M.
Take `C[C@@H](O)CCNC(=O)c1cc(-c2ccc(C(F)(F)F)cc2)nn(-c2cccc(F)c2)c1=O` (single isomer, unassigned) [Example 330]: the values for the 50% inhibitory concentration (IC50) in assay [1] (setting [4]) and in assay [2] were over 2e-05 M and 1.21e-07 M, respectively.
`O=C(NCC(O)C(F)(F)F)c1cc(-c2ccc(C(F)(F)F)cc2)nn(-c2cccc(F)c2)c1=O` (single isomer, unassigned; (+)) [Example 244]: the results for the IC50 in assay [1] (setting [3]) and in assay [2] were over 2e-05 M and 3.17e-08 M, respectively.
In the case of `Cc1ccc(-c2cc(C(=O)N[C@@H](C)CO)c(=O)n(-c3cccc(F)c3)n2)cc1` [Example 8, 2-(3-Fluorophenyl)-N-[(2S)-1-hydroxypropan-2-yl]-6-(4-methylphenyl)-3-oxo-2,3-dihydropyridazine-4-carboxamide], the figures for the IC50 in assay [1] (setting [4]) and in assay [2] were over 2e-05 M and 3.61e-08 M, respectively.
For `O=C(NC(CO)CCO)c1cc(-c2ccc(Cl)cc2)nn(-c2cccc(F)c2)c1=O` (racemic) [Example 224, 6-(4-Chlorophenyl)-N-[(2RS)-1,4-dihydroxybutan-2-yl]-2-(3-fluorophenyl)-3-oxo-2,3-dihydropyridazine-4-carboxamide], the IC50 in assay [1] (setting [4]) was over 2e-05 M; in assay [2], 2.79e-07 M.
On the same counts, the results for `O=C(NCC(O)C(F)(F)F)c1cc(-c2ccc(Cl)c(Cl)c2)nn(-c2cccc(F)c2)c1=O` (single isomer, unassigned) [Example 308, 6-(3,4-Dichlorophenyl)-2-(3-fluorophenyl)-3-oxo-N-(3,3,3-trifluoro-2-hydroxypropyl)-2,3-dihydropyridazine-4-carboxamide] are over 2e-05 M and 1.77e-07 M.
For `O=C(NCCC1(O)CCCCC1)c1cc(-c2ccc(Cl)cc2)nn(-c2cccc(F)c2)c1=O` [Example 320, 6-(4-chlorophenyl)-2-(3-fluorophenyl)-N-[2-(1-hydroxycyclohexyl)ethyl]-3-oxo-2,3-dihydropyridazine-4-carboxamide], the IC50 in assay [1] (setting [4]) is over 2e-05 M; in assay [2], 3.62e-07 M.
Consider `CC(NC(=O)c1cc(-c2ccc(Cl)cc2)nn(-c2cccc(F)c2)c1=O)C(O)CO` (single isomer, unassigned) [Example 346, 6-(4-chlorophenyl)-N-(3,4-dihydroxybutan-2-yl)-2-(3-fluorophenyl)-3-oxo-2,3-dihydropyridazine-4-carboxamide], for which the IC50 is over 2e-05 M in assay [1] (setting [4]) and 1.98e-07 M in assay [2].
Consider `COc1ccc(-c2cc(C(=O)N[C@@H](C)CO)c(=O)n(-c3cccc(F)c3)n2)cc1` [Example 297, 2-(3-Fluorophenyl)-N-[(2S)-1-hydroxypropan-2-yl]-6-(4-methoxyphenyl)-3-oxo-2,3-dihydropyridazine-4-carboxamide], for which the IC50 in assay [1] (setting [4]) was over 2e-05 M; in assay [2], 8.72e-08 M.
On to `CC(CO)CNC(=O)c1cc(-c2ccc(Cl)cc2)nn(-c2cccc(F)c2)c1=O` (single isomer, unassigned; (+)) [Example 201, (+)-6-(4-Chlorophenyl)-2-(3-fluorophenyl)-N-(3-hydroxy-2-methylpropyl)-3-oxo-2,3-dihydropyridazine-4-carboxamide], for which the IC50 was over 2e-05 M in assay [1] (setting [4]) and 8.64e-08 M in assay [2].
